Blank lines part the entries; values can stand above or below the compound they belong to. *1 amine or outer side, *2 acyl side, *3 side chain or, on linkers, in order; H or OH if unused. Where a SMILES comes first, the peptide text is derived from it. Side-chain parts run from the residue outwards. [ ]: non-standard residue; d: D form. The star is where a group is joined. C20 diacid = O=C(O)CCCCCCCCCCCCCCCCCCC(=O)*; C18 diacid = O=C(O)CCCCCCCCCCCCCCCCC(=O)*; C16 diacid = O=C(O)CCCCCCCCCCCCCCC(=O)*; γGlu = O=C(O)[C@H](CCC(=O)[*:2])N[*:1]; AEEA = NCCOCCOCC(=O)O; Aib = CC(C)(N)C(=O)O
What was measured:
[1] = Pharmacokinetics in male Sprague Dawley rats after subcutaneous administration; assay type: in vivo; details: plasma, rat
[2] = In vitro subcutaneous tissue supernatant (SCts) stability and metabolite identification, rat; assay type: in vitro ADME; parameters: remaining at 2 h: dose or concentration left out as unconfirmed; details: male, Sprague Dawley; rat subcutaneous tissue supernatant (SCts), 37° C, 2 h
Method: In vitro metabolic stability in subcutaneous tissue supernatant (SCts) was studied in male Sprague Dawley rats. Test compounds were incubated […] for 2 hours at 37° C.
Software aided in vitro metabolite identification on SCts stability samples was performed using either Metabolite Pilot (Sciex) or Biopharma Finder (Thermo). In addition, metabolite identification using Metabolite Pilot was performed on plasma samples of Comp Y following SC administration to rat at 1 mg/kg.

human CRF2a receptor = molecular target: T1, human CRF2a receptor (Homo sapiens, UniProt Q13324); assay: Activity at human CRF2a receptor, cAMP functional assay in TeloHEAC cells; assay type: cell-based; details: TeloHEAC cells stably expressing human CRF2a receptor, relative to urocortin 2 (100 nM = 100%)
T1 construct: expressed in transfected cells; host or cells: TeloHEAC cells
T1 sequence (Q13324 1-411): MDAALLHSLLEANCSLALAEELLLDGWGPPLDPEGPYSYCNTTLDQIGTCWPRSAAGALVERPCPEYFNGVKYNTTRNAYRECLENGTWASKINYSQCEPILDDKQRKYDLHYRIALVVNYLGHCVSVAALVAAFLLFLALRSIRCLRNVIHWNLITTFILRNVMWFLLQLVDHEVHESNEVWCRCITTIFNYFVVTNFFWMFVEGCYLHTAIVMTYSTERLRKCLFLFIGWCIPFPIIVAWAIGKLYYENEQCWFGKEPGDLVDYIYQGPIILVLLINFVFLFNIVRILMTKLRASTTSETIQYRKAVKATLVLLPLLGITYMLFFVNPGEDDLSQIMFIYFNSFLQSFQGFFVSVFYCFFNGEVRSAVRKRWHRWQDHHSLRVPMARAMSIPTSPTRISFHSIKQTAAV
How it was run: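 TeloHEAC cells stably expressing human CRF2a (10000 cells/well) were treated with 16-point 1:2 compound dilutions in HBSS/20 mM HEPES with IBMX for 30 min at 37° C. cAMP was read by HTRF (665/620 nm ratio). EC50 was the concentration giving 50% activation, with 100 nM urocortin 2 set as 100%.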

CFR1R receptor = molecular target: T2, CFR1R receptor (Homo sapiens, UniProt P34998); assay: Activity at anti-target CFR1R receptor, cAMP assay in CRF1R-overexpression CHO-K1 cells; assay type: cell-based; details: 100% = Sauvagine at 100 nM
T2 construct: host or cells: CHO-K1 (clone 2)
T2 sequence (P34998 24-415): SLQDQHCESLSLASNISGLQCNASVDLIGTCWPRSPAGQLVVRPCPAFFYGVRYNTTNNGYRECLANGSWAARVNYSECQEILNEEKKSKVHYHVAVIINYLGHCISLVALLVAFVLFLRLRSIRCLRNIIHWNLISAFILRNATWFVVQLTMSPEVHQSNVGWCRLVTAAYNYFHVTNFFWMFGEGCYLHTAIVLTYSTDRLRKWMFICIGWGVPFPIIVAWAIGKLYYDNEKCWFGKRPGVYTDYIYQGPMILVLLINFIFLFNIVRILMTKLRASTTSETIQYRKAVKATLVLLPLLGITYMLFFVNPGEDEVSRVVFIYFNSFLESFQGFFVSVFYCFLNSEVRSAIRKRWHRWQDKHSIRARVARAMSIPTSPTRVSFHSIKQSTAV
How it was run: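 The method mirrors that used with TeloHAEC cells. Here, thawed clone 2 cells seeded at 4000 cells/well are tested, and 100 nM Sauvagine sets the top of the activation scale.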

[3] = Chemical stability in buffer (pH 7.4 / pH 4.5), % purity loss; assay type: physicochemical; details: 100 mM phosphate buffer pH 7.4; 40° C. vs 5° C.; 14 or 28 days
How it was run: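 LC-UV gave % loss after 14 or 28 days of storage at 5 °C or 40 °C. Samples were diluted supernatants from compound incubated 1 h at room temperature at 10 mg/mL target, in 100 mM acetate pH 4.5 or 100 mM phosphate pH 7.4.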

[4] = Pharmacokinetics in male Sprague Dawley rats after subcutaneous administration; assay type: in vivo; details: plasma, rat, SC, 0.05 mg/kg
Method: The pharmacokinetics of UCN-2 derivatives was studied in male Sprague Dawley rats after subcutaneous administration (SC) at 0.05, 0.1, 0.3 or 1 mg/kg. Peptides were formulated as a solution in 10 mM phosphate pH 7.4 buffer+glycerol 85% (2.3% v/v)). […] The supernatant (200 μL) was analyzed by LC-MSMS. Pharmacokinetic parameters were calculated using established non-compartmental methods. The area under the plasma concentration curve versus time (AUC) was determined using Watson LIMS (version 7.6), with linear trapezoidal interpolation in the ascending slope and logarithmic trapezoidal interpolation in the descending slope. The portion of the AUC from the last measurable concentration to infinity was estimated from the equation, Ct/kel, where Ct represents the last measurable concentration and kel is the elimination rate constant. The latter was determined from the concentration curve versus time by linear regression at the terminal phase of the semi-logarithmic plot.

- AUC(0-t) ([1]; IV, 0.1 mg/kg): 2760 ng·h/mL
- half-life ([1]; IV, 0.1 mg/kg): 4.3 h
- AUC(0-t) ([1]; SC, 1.0 mg/kg): 14500 ng·h/mL
- Cmax ([1]; SC, 1.0 mg/kg): 1040 ng/mL
- Tmax ([1]; SC, 1.0 mg/kg): 2 h
- half-life ([1]; SC, 1.0 mg/kg): 4 h
Compound: CC[C@H](C)[C@H](N)C(=O)N[C@H](C(=O)N[C@@H](CC(C)C)C(=O)N[C@@H](CO)C(=O)N[C@@H](CC(C)C)C(=O)N[C@@H](CC(=O)O)C(=O)N[C@H](C(=O)N1CCC[C@H]1C(=O)N[C@H](C(=O)N[C@@H](CCCCN)C(=O)N[C@@H](CC(C)C)C(=O)N[C@@H](CCCCNC(=O)COCCOCCNC(=O)COCCOCCNC(=O)CC[C@H](NC(=O)CCCCCCCCCCCCCCCCC(=O)O)C(=O)O)C(=O)N[C@@H](CCCCN)C(=O)N[C@H](C(=O)N[C@@H](CC(C)C)C(=O)N[C@@H](CC(C)C)C(=O)N[C@@H](CCC(=O)O)C(=O)N[C@@H](CCC(N)=O)C(=O)N[C@@H](CCC(=O)O)C(=O)N[C@@H](CCCCN)C(=O)N[C@@H](CCC(N)=O)C(=O)N[C@@H](CCCCN)C(=O)N[C@@H](CCCCN)C(=O)N[C@@H](CCC(N)=O)C(=O)N[C@@H](CCCNC(=N)N)C(=O)N[C@@H](CCC(=O)O)C(=O)N[C@@H](CCC(N)=O)C(=O)N[C@@H](C)C(=O)N[C@@H](CCC(=O)O)C(=O)N[C@H](C(=O)N[C@@H](CC(N)=O)C(=O)N[C@@H](CCCCN)C(=O)N[C@@H](CCC(N)=O)C(=O)N[C@H](C(=O)N[C@@H](CC(C)C)C(=O)N[C@@H](C)C(=O)N[C@@H](CCC(N)=O)C(=O)N[C@H](C(N)=O)C(C)C)[C@@H](C)CC)[C@@H](C)O)[C@@H](C)CC)[C@@H](C)CC)C(C)C)C(C)C [149 (Comp Y)] (H-IVLSLDVPIKLK([AEEA-AEEA-γGlu-C18 diacid])KILLEQEKQKKQREQAETNKQILAQV-NH2)

- remaining at 2 h [2]: 4%
Compound: CC[C@H](C)[C@H](N)C(=O)N[C@H](C(=O)N[C@@H](CC(C)C)C(=O)N[C@@H](CO)C(=O)N[C@@H](CC(C)C)C(=O)N[C@@H](CC(=O)O)C(=O)N[C@H](C(=O)N1CCC[C@H]1C(=O)N[C@H](C(=O)N[C@@H](CCCCN)C(=O)N[C@@H](CC(C)C)C(=O)N[C@@H](CCCCNC(=O)COCCOCCNC(=O)COCCOCCNC(=O)CC[C@H](NC(=O)CCCCCCCCCCCCCCCCC(=O)O)C(=O)O)C(=O)N[C@@H](CCCCN)C(=O)N[C@H](C(=O)N[C@@H](CC(C)C)C(=O)N[C@@H](CC(C)C)C(=O)N[C@@H](CCC(=O)O)C(=O)N[C@@H](CCC(N)=O)C(=O)N[C@@H](CCC(=O)O)C(=O)N[C@@H](CCCCN)C(=O)N[C@@H](CCC(N)=O)C(=O)N[C@@H](CCCCN)C(=O)N[C@@H](CCCCN)C(=O)N[C@@H](CCC(N)=O)C(=O)N[C@@H](CCCNC(=N)N)C(=O)N[C@@H](CCC(=O)O)C(=O)N[C@@H](CCC(N)=O)C(=O)N[C@@H](C)C(=O)N[C@@H](CCC(=O)O)C(=O)N[C@H](C(=O)N[C@@H](CC(N)=O)C(=O)N[C@@H](CCCCN)C(=O)N[C@@H](CCC(N)=O)C(=O)N[C@H](C(=O)N[C@@H](CC(C)C)C(=O)N[C@@H](C)C(=O)N[C@@H](CCC(N)=O)C(=O)N[C@H](C(N)=O)C(C)C)[C@@H](C)CC)[C@@H](C)O)[C@@H](C)CC)[C@@H](C)CC)C(C)C)C(C)C [149 (CompY)] (H-IVLSLDVPIKLK([AEEA-AEEA-γGlu-C18 diacid])KILLEQEKQKKQREQAETNKQILAQV-NH2)

- remaining at 2 h [2]: 0%
Compound: CC[C@H](C)[C@H](N)C(=O)N[C@H](C(=O)N[C@@H](CC(C)C)C(=O)N[C@@H](CO)C(=O)N[C@@H](CC(C)C)C(=O)N[C@@H](CC(=O)O)C(=O)N[C@H](C(=O)N1CCC[C@H]1C(=O)N[C@H](C(=O)N[C@@H](CCCCN)C(=O)N[C@@H](CC(C)C)C(=O)N[C@@H](CCCCNC(=O)CC[C@H](NC(=O)CCCCCCCCCCCCCCC(=O)O)C(=O)O)C(=O)N[C@@H](CCC(N)=O)C(=O)N[C@H](C(=O)N[C@@H](CC(C)C)C(=O)N[C@@H](CC(C)C)C(=O)N[C@@H](CCCCN)C(=O)N[C@@H](CCC(N)=O)C(=O)N[C@@H](CCC(=O)O)C(=O)N[C@@H](CCCNC(=N)N)C(=O)N[C@@H](CCC(N)=O)C(=O)N[C@@H](CCCCN)C(=O)N[C@@H](CCCCN)C(=O)N[C@@H](CCC(N)=O)C(=O)N[C@@H](CCCNC(=N)N)C(=O)N[C@@H](CCC(=O)O)C(=O)N[C@@H](CCC(N)=O)C(=O)N[C@@H](C)C(=O)N[C@@H](CCC(=O)O)C(=O)N[C@@H](CCCCN)C(=O)N[C@@H](CC(N)=O)C(=O)N[C@@H](CCCCN)C(=O)N[C@@H](CCC(N)=O)C(=O)N[C@H](C(=O)N[C@@H](CC(C)C)C(=O)N[C@@H](CCC(=O)O)C(=O)N[C@@H](CCC(N)=O)C(=O)N[C@H](C(N)=O)C(C)C)[C@@H](C)CC)[C@@H](C)CC)[C@@H](C)CC)C(C)C)C(C)C [151 (CompX)] (H-IVLSLDVPIKLK([γGlu-C16 diacid])QILLKQERQKKQREQAEKNKQILEQV-NH2)

- EC50 (human CRF2a receptor): 110 pM
- Emax (% I) (CFR1R receptor): 41 % I
- Buffer stability pH 7.4 % purity loss [3]: 0.3/Not Tested %
- AUC(0-t) [4]: 4680 ng·h/mL
- Cmax [4]: 154 ng/mL
- Tmax [4]: 14 h
- half-life [4]: 8 h
- AUC(0-t) ([1]; IV, 0.025 mg/kg): 4840 ng·h/mL
- half-life ([1]; IV, 0.025 mg/kg): 8 h
Compound: CC[C@H](C)[C@H](NC(C)=O)C(=O)N[C@H](C(=O)N[C@@H](CC(C)C)C(=O)N[C@@H](CO)C(=O)N[C@@H](CC(C)C)C(=O)N[C@@H](CC(=O)O)C(=O)N[C@@H](C(=O)N1CCC[C@H]1C(=O)N[C@H](C(=O)N[C@@H](CCCCN)C(=O)N[C@@H](CC(C)C)C(=O)N[C@@H](CCCCNC(=O)CC[C@H](NC(=O)CCCCCCCCCCCCCCCCCCC(=O)O)C(=O)O)C(=O)N[C@@H](CCCCN)C(=O)N[C@H](C(=O)N[C@@H](CC(C)C)C(=O)N[C@@H](CC(C)C)C(=O)N[C@@H](CCC(=O)O)C(=O)N[C@@H](CCC(N)=O)C(=O)N[C@@H](CCC(=O)O)C(=O)N[C@@H](CCCCN)C(=O)N[C@@H](CCC(N)=O)C(=O)N[C@@H](CCCCN)C(=O)N[C@@H](C)C(=O)N[C@@H](CCC(N)=O)C(=O)N[C@@H](CCCNC(=N)N)C(=O)N[C@@H](CCC(=O)O)C(=O)N[C@@H](CCC(N)=O)C(=O)N[C@@H](C)C(=O)N[C@@H](CCC(=O)O)C(=O)N[C@H](C(=O)N[C@@H](CC(N)=O)C(=O)NC(C)(C)C(=O)N[C@@H](CCC(N)=O)C(=O)N[C@H](C(=O)N[C@@H](CC(C)C)C(=O)N[C@@H](C)C(=O)N[C@@H](CCC(N)=O)C(=O)N[C@H](C(N)=O)C(C)C)[C@@H](C)CC)[C@@H](C)O)[C@@H](C)CC)[C@@H](C)CC)C(C)C)C(C)C [compound 212] (Ac-IVLSLD[dV]PIKLK([γGlu-C20 diacid])KILLEQEKQKAQREQAETN[Aib]QILAQV-NH2)

Source: patent publication US20260001928A1 (CORTERIA PHARMACEUTICALS, priority 2022, published 2026)
